Reference: patent EP1046400B1, “Use of an Equine herpes virus type-4 thymidine kinase and a nucleoside analog selected from ganciclovir and acyclovir for the killing of human proliferative cells” (Université Pierre et Marie Curie (Paris VI), priority 1999, dated 2000)

What was measured:
NIH-3T3 = assay: Cytotoxicity assay (inhibition of [methyl-3H]thymidine incorporation), parental cells; type: cell-based, murine; settings: Mus musculus, parental NIH-3T3
Procedure: (§1) Cells were seeded at 2.5x10^3 per wells in 24-wells plates. 24 h later they were grown in drug-containing medium for 7 days. Drug concentrations ranging from 0.001 nM to 100 µM were tested in triplicate. The medium was changed with fresh DMEM every 2 days. On day 6, 1.5 µCi of [methyl-^3H]thymidine (Amersham, UK) was added per well. After washes with phosphate-buffered saline (PBS pH 7.3), incorporated radioactivity was determined with a Micro-Beta Plus counter (EG&G Instruments and Wallac, Turku, Finland).
(§2) Drug toxicity was assessed by measuring inhibition of cell proliferation. Cells were grown in drug-containing medium for 7 days. [methyl-^3H]-thymidine was added at day 6 and incorporated radioactivity was measured.

[1] = test system: murine tk(-) 3T3 HSV1-TK expressing clones; assay: Cytotoxicity assay, TK expressing clones; type: cell-based; settings: for IC50: Mus musculus, Table 2, HSV1-TK clones, mean of 3 experiments; for Selectivity Index: IC50 ratio of parental to HSV1-TK clones
Procedure: as §1
(§3) Drug sensitivity of TK expressing clones were tested as described in Table 1.

[2] = test system: EBV-TK expressing tk(-) 3T3 cells (bulk); assay: Cytotoxicity assay, bulk transfected tk(-) 3T3 cells; type: cell-based, murine; settings: for IC50: Mus musculus, NIH3T3, 168 h; for Selectivity Index: IC50 ratio of parental to EBV-TK transfected cells (bulk)
Procedure: (§4) Cells were transfected by the various plasmids using a calcium phosphate precipitation kit (GibcoBRL). After 48 h of phenotypic expression, cells were grown in selective medium with zeocin (Cayla, Toulouse, France): 25 µg/ml (3T3 cells), 50 µg/ml (143 B cells) or 100 µg/ml (PANC-O2 and HCT 116 cells).
as §1, §2

[3] = test system: HSV1-TK expressing tk(-) 3T3 cells (bulk); assay: as above; type: cell-based, murine; settings: for IC50: Mus musculus, NIH3T3, 168 h; for Selectivity Index: IC50 ratio of parental to HSV1-TK transfected cells (bulk)
Procedure: as §4, §1, §2

[4] = test system: EHV4-TK expressing tk(-) 3T3 cells (bulk); assay: as above; type: cell-based, murine; settings: for Selectivity Index: IC50 ratio of parental to EHV4-TK transfected cells (bulk); for IC50: Mus musculus, NIH3T3, 168 h
Procedure: (§5) Cells were transfected by the various plasmids using a calcium phosphate precipitation kit (GibcoBRL).
as §1, §2

[5] = test system: VZV-TK expressing tk(-) 3T3 cells (bulk); assay: as above; type: cell-based, murine; settings: for Selectivity Index: IC50 ratio of parental to VZV-TK transfected cells (bulk); for IC50: Mus musculus, NIH3T3, 168 h
Procedure: as §5, §1, §2

[6] = test system: murine tk(-) 3T3 EHV4-TK expressing clones; assay: Cytotoxicity assay, TK expressing clones; type: cell-based; settings: for Selectivity Index: IC50 ratio of parental to EHV4-TK clones; for IC50: Mus musculus
Procedure: as §1, §3

[7] = test system: human tk(-) 143B cells transfected with HSV1- or EHV4-TK; assay: Cytotoxic activity on human cell bulks, EHV4-TK compared with HSV1-TK (Figure 3); type: cell-based; settings: human tk(-) 143B cell bulks
Procedure: Toxicity is presented as mean of IC50 values ± SD. The means, determined on 3 independent experiments, are indicated on the top of each histogram.
as §1
Human tk(-) osteosarcoma 143B cell bulks expressing HSV1- or EHV4-TK were thus generated. We first analyzed the herpesvirus-TK protein expression levels for each cell bulks by […] using polyclonal antibodies against Sh protein (Figure 2-B). There was no detectable band corresponding to fused protein in tk(-) 143B cell extracts.

[8] = test system: tk(-) 3T3 cells expressing EHV4-TK/E-GFP fusion protein; assay: GCV toxicity, viability assay (Figure 5-B); type: cell-based, murine; settings: Mus musculus, NIH3T3
Procedure: (§6) (A) E-GFP expression in tk(-) 3T3 transfected and non-transfected cells. EHV4-TK gene fused with E-GFP gene (Figure 1-B) was transfected in tk(-) 3T3 cells, and E-GFP positive cells were detected by FACS analysis. Expression of E-GFP was determined a week after transfection (1) and after 2 months of culture in HAT medium (2). (B) GCV toxicity in transfected and non-transfected cells. Results were expressed as % of viable cells compared to cells grown without GCV.
(§7) Parental and viral-TK expressing cells were plated at 5x10^3 per wells in 6-wells dishes. After 24 h, drugs was added to the medium at various concentrations ranging from 0.01 to 100 µM. Medium containing drugs was changed every 2 days. After 7 days of culture, cell viability was assayed by counting viable cells by trypan blue exclusion after 7 days of culture with GCV.
(§8) To facilitate the transgene detection in transfected cells or tissues, the E-GFP gene was fused in frame at the 3' end of the EHV4-TK gene and cloned into an expression vector (Figure 1-B). This construction was then transfected into tk(-) 3T3 cells, followed by FACS analysis of E-GFP positive cells. A cell bulk containing 95% of E-GFP expressing cells was obtained. […] Expression of the EHV4-TK/E-GFP fusion protein efficiently sensitized these cells to GCV for which the IC50 was 0.6 µM, compared to 30 µM for tk(-) 3T3 cells (Figure 5-B).

[9] = test system: HSV1-TK expressing PANC-O2 cell bulk; assay: Cytotoxicity assay, pancreatic tumor cell bulk; type: cell-based, murine; settings: Mus musculus, means of two independent experiments
Procedure: as §1

[10] = test system: EHV4-TK expressing PANC-O2 cell bulk; assay: Cytotoxicity assay, pancreatic tumor cell bulk; type: cell-based, murine
Procedure: as §1

tk(-) 3T3 cells = assay: GCV toxicity, viability assay (Figure 5-B), non-transfected cells; type: cell-based, murine; settings: Mus musculus, NIH3T3; non-transfected tk(-) 3T3; % viable cells
Procedure: as §6, §7, §8

[11] = test system: EHV4-TK expressing HCT116 cells; assay: Cytotoxicity assay, colonic carcinoma cells; type: cell-based, human
Procedure: as §1

[12] = test system: HSV1-TK expressing HCT116 cells; assay: Cytotoxicity assay, colonic carcinoma cells; type: cell-based, human
Procedure: as §1

[13] = 10 mg/kg twice a day, humans (refs 34, 35); cited from earlier work
HCT116 cells = assay: Cytotoxicity assay, colonic carcinoma cells, parental; type: cell-based; settings: Homo sapiens, HCT-116, mean
Procedure: as §1

[14] = NIH3T3, 168 h, Table 1, 7 days drug, mean of 2 experiments
[15] = NIH3T3, Table 2, mean of 3 experiments

Row | Compound | IC50 (NIH-3T3; [14]) [nM] | IC50 (NIH-3T3; [15]) [nM] | IC50 [1] [nM] | IC50 [2] [nM] | IC50 [3] [nM] | Selectivity Index [4] | IC50 [4] [nM] | Selectivity Index [5] | IC50 [5] [nM] | Selectivity Index [1] | Selectivity Index [6] | IC50 [6] [nM] | toxicity / sensitivity in EHV4-TK compared with HSV1-TK expressing cells [7] | Selectivity Index [2] | Selectivity Index [3] | further results
1 | Nc1nc2c(ncn2COCCO)c(=O)[nH]1 [ACV, 9-(2-hydroxyethoxymethyl)guanine] | 165000 | 53300 | 15000 | 43300 | 8700 |  |  |  |  |  |  |  |  |  |  | 
2 | O=c1[nH]c(=O)n([C@H]2C[C@H](O)[C@@H](CO)O2)cc1/C=C/Br [BVDU, (E)-5-(2-bromovinyl)-2'-deoxyuridine] | 55000 | 43300 | 13 | 40 | 15 | 2750 | 20 | 2750 | 16 | 3331 | 1237 | 35 | greater in HSV1-TK than in EHV4-TK expressing cells | 1375 | 5500 | 
3 | Nc1nc2c(ncn2COC(CO)CO)c(=O)[nH]1 [GCV, 9-(1,3-dihydroxy-2-propoxymethyl)guanine] | 70000 | 36700 | 160 | 6000 | 200 | 700 | 100 | 9 | 8000 | 230 | 612 | 60 | approximately twelve fold more sensitive | 12 | 350 | IC50 [8]: 600 nM; IC50 [9]: 1700 ± 500 nM; IC50 ([10]; Mus musculus): 550 ± 70 nM; IC50 fold lower for EHV4-TK than for HSV1-TK expressing cell bulk ([10]; PANC-O2): 3 fold; IC50 (tk(-) 3T3 cells): 30000 nM; fold more sensitive than HCT116 cells ([11]; EHV4-TK expressing vs parental HCT116): 485 fold; IC50 fold lower for EHV4-TK than for HSV1-TK expressing cells ([11]; HCT116): 3 fold; IC50 ([11]; Homo sapiens, HCT-116, EHV4-TK HCT116, means ± SD for 3 independent experiments): 110 ± 20 nM; fold more sensitive than HCT116 cells ([12]; HSV1-TK expressing vs parental HCT116): 170 fold; IC50 ([12]; Homo sapiens, HCT-116, HSV1-TK HCT116, means ± SD for 3 independent experiments): 320 ± 80 nM; cerebral spinal fluid (CSF) concentrations, fold lower than plasmatic [13]: approximately 3 fold; IC50 (HCT116 cells): 53400 ± 15000 nM
